Structures can show the parent of a compound that is named as a salt.
melting point [°C] | SMILES
159 to 160 | CC(C)=CCn1c(N2CCCC(N)(C(=O)N3CCCC3)C2)nc2c1c(=O)n(C)c(=O)n2C (stereo not shown) (as salt: sodium) [Example 1(139), 1,3-dimethyl-7-(3-methyl-2-buten-1-yl)-8-[3-amino-3-(pyrrolidin-1-ylcarbonyl)-piperidin-1-yl]-xanthine]
172.5 to 175 | CN[C@H]1CCCC[C@H]1Nc1nc2c(c(=O)n(C)c(=O)n2C)n1CC=C(C)C (relative stereo) [Example 1(77), 1,3-dimethyl-7-(3-methyl-2-buten-1-yl)-8-[cis-(2-methylamino-cyclohexyl)amino]-xanthine]
119 | CC(C)=CCn1c(N2CCC(N)C2)nc2c1c(=O)n(C)c(=O)n2C (stereo not shown) [Example 1(1), 1,3-dimethyl-7-(3-methyl-2-buten-1-yl)-8-(3-amino-pyrrolidin-1-yl)-xanthine]
153 to 154.5 | CC(C)=CCn1c(N2CCCC(N)C2)nc2c1c(=O)n(CCc1c(C)cc(C)cc1C)c(=O)n2C (stereo not shown) [Example 1(36), 1-[2-(2,4,6-trimethyl-phenyl)-ethyl]-3-methyl-7-(3-methyl-2-buten-1-yl)-8-(3-amino-piperidin-1-yl)-xanthine]
130 to 132 | CC(C)=CCn1c(N2CCCC(N)C2)nc2c1c(=O)n(CCc1ccc(Cl)cc1Cl)c(=O)n2C (stereo not shown) [Example 1(37), 1-[2-(2,4-dichloro-phenyl)-ethyl]-3-methyl-7-(3-methyl-2-buten-1-yl)-8-(3-amino-piperidin-1-yl)-xanthine]
136 to 138.6 | CC(C)=CCn1c(N2CCCC(N)C2)nc2c1c(=O)n(CCn1cccc1)c(=O)n2C (stereo not shown) [Example 1(61), 1-[2-(pyrrol-1-yl)-ethyl]-3-methyl-7-(3-methyl-2-buten-1-yl)-8-(3-amino-piperidin-1-yl)-xanthine]
150 to 152 | C#CCCn1c(=O)c2c(nc(N3CCCC(N)C3)n2CC=C(C)C)n(C)c1=O (stereo not shown) [Example 1(65), 1-(3-butyn-1-yl)-3-methyl-7-(3-methyl-2-buten-1-yl)-8-(3-amino-piperidin-1-yl)-xanthine]
111 to 112.6 | C=CCCn1c(=O)c2c(nc(N3CCCC(N)C3)n2CC=C(C)C)n(C)c1=O (stereo not shown) [Example 1(66), 1-(3-butene-1-yl)-3-methyl-7-(3-methyl-2-buten-1-yl)-8-(3-amino-piperidin-1-yl)-xanthine]
112 to 115 | CC(C)=CCn1c(N2CCC[C@H]2CN)nc2c1c(=O)n(C)c(=O)n2C [Example 1(76), 1,3-dimethyl-7-(3-methyl-2-buten-1-yl)-8-{(S)-[2-(aminomethyl)-pyrrolidin-1-yl]}-xanthine]
118.5 to 119.5 | COc1cccc(CCn2c(=O)c3c(nc(N4CCCC(N)C4)n3CC=C(C)C)n(C)c2=O)c1 (stereo not shown) [Example 1(86), 1-[2-(3-methoxy-phenyl)-ethyl]-3-methyl-7-(3-methyl-2-buten-1-yl)-8-(3-amino-piperidin-1-yl)-xanthine]
116.5 to 117.5 | CC(C)=CCn1c(N2CCCC(N)C2)nc2c1c(=O)n(CCc1cccc(Br)c1)c(=O)n2C (stereo not shown) [Example 1(87), 1-[2-(3-bromo-phenyl)-ethyl]-3-methyl-7-(3-methyl-2-buten-1-yl)-8-(3-amino-piperidin-1-yl)-xanthine]
126.8 to 127.5 | CC(C)=CCn1c(N2CCCC(N)C2)nc2c1c(=O)n(CCc1cccc(F)c1)c(=O)n2C (stereo not shown) [Example 1(98), 1-[2-(3-fluoro-phenyl)-ethyl]-3-methyl-7-(3-methyl-2-buten-1-yl)-8-(3-amino-piperidin-1-yl)-xanthine]
120.8 to 122 | CC(C)=CCn1c(N2CCCC(N)C2)nc2c1c(=O)n(CCc1cccc([N+](=O)[O-])c1)c(=O)n2C (stereo not shown) [Example 1(99), 1-[2-(3-nitro-phenyl)-ethyl]-3-methyl-7-(3-methyl-2-buten-1-yl)-8-(3-amino-piperidin-1-yl)-xanthine]
129 to 130.2 | CC(C)=CCn1c(N2CCCC(N)C2)nc2c1c(=O)n(CCc1ccc(C)cc1)c(=O)n2C (stereo not shown) [Example 1(100), 1-[2-(4-methyl-phenyl)-ethyl]-3-methyl-7-(3-methyl-2-buten-1-yl)-8-(3-amino-piperidin-1-yl)-xanthine]
147 | Cn1c(=O)c2c(nc(N3CCCC(N)C3)n2C)n(C)c1=O (stereo not shown) [Example 1(115), 1,3,7-trimethyl-8-(3-amino-piperidin-1-yl)-xanthine]
140.5 to 143 | CC(C)=CCn1c(NCC(C)(C)N)nc2c1c(=O)n(C)c(=O)n2C [Example 1(134), 1,3-dimethyl-7-(3-methyl-2-buten-1-yl)-8-(2-amino-2-methyl-propylamino)-xanthine]
141 to 144 | CC(C)=CCn1c(NC[C@@H](C)N)nc2c1c(=O)n(C)c(=O)n2C [Example 1(135), 1,3-dimethyl-7-(3-methyl-2-buten-1-yl)-8-((R)-2-amino-propylamino)-xanthine]
150 | Cn1c(=O)c2c(nc(N3CCC(N)C3)n2Cc2ccccc2)n(C)c1=O (stereo not shown) [Example 1, 1,3-dimethyl-7-benzyl-8-(3-amino-pyrrolidin-1-yl)-xanthine]
102 to 105 | COC(=O)Cn1c(=O)c2c(nc(N3CCC[C@H](N)C3)n2CC=C(C)C)n(C)c1=O [Example 2(19), 1-[(methoxycarbonyl)-methyl]-3-methyl-7-(3-methyl-2-buten-1-yl)-8-((S)-3-amino-piperidin-1-yl)-xanthine]
142 to 144 | CCOC(=O)c1ccc(CCn2c(=O)c3c(nc(N4CCC[C@H](N)C4)n3CC=C(C)C)n(C)c2=O)cc1 [Example 2(21), 1-{2-[4-(ethoxycarbonyl)-phenyl]-ethyl}-3-methyl-7-(3-methyl-2-buten-1-yl)-8-((S)-3-amino-piperidin-1-yl)-xanthine]
162 to 163.5 | CC(C)=CCn1c(N2CCCC(N)C2)nc2c1c(=O)n(CCc1cc(F)cc(F)c1)c(=O)n2C (stereo not shown) [Example 2(36), 1-[2-(3,5-difluoro-phenyl)-ethyl]-3-methyl-7-(3-methyl-2-buten-1-yl)-8-(3-amino-piperidin-1-yl)-xanthine]
115 to 117 | CC(C)=CCn1c(N2CCCC(N)C2)nc2c1c(=O)n(C)c(=O)n2C(C)C (stereo not shown) [Example 2(60), 1-methyl-3-isopropyl-7-(3-methyl-2-buten-1-yl)-8-(3-amino-piperidin-1-yl)-xanthine]
146 to 149 | CC(C)=CCn1c(N2CCCC(N)C2)nc2c1c(=O)n(C)c(=O)n2CCC#N (stereo not shown) [Example 2(62), 1-methyl-3-(2-cyano-ethyl)-7-(3-methyl-2-buten-1-yl)-8-(3-amino-piperidin-1-yl)-xanthine]
138 | CC(C)=CCn1c(N(C)CC(N)C(=O)N2CCCC2)nc2c1c(=O)n(C)c(=O)n2C (stereo not shown) [Example 2(142), 1,3-dimethyl-7-(3-methyl-2-buten-1-yl)-8-{N-[2-amino-3-oxo-3-(pyrrolidin-1-yl)-propyl]-N-methyl-amino}-xanthine]
226 to 228 | CC(C)=CCn1c(N2CCC[C@H](N)C2)nc2c1c(=O)n(CCC(=O)O)c(=O)n2C [Example 6(4), 1-(2-carboxy-ethyl)-3-methyl-7-(3-methyl-2-buten-1-yl)-8-((S)-3-amino-piperidin-1-yl)-xanthine]
